Experimental findings from publication PMC8584265, “Stress Driven Discovery of Natural Products From Actinobacteria with Anti-Oxidant and Cytotoxic Activities Including Docking and ADMET Properties” (International Journal of Molecular Sciences, 2021) are described below.

Values after ≈ are worked out from the molar mass of the structure shown. Like-named read-outs stand apart in the source and are kept apart here.

The nature of series [1]: DPPH radical scavenging assay. The note with it: for inhibition of free radical (DPPH): 100 µg/mL; for IC50 DPPH Scavenging: mean ± SD, triplicate. Type of series: biochemical. The method, then: (§1) To evaluate the antioxidant potential of the stress compound, a multifaceted antioxidant evaluation of a stress compound was performed via DPPH scavenging assay, OH● radical scavenging assay, NO scavenging assay, and Iron chelating assay by following pre-described protocols.

Another series is described as follows: NO scavenging assay. Format: biochemical. To be noted: for IC50 NO Inhibition: mean ± SD, triplicate. The procedure: as §1
The test system of another series is blood lymphocytes. The series is described as follows: Comet assay (genotoxicity). Type of series: cell-based. The method, then: To evaluate toxicity, blood lymphocytes were treated with 10 and 20 µg/mL MVL samples, 20 µg/mL EMS (positive), 1% DMSO in PBS (negative control), and comet assay was performed. The slides were envisioned under a fluorescent microscope, and the extent of DNA damage was evaluated by analyzing the photomicrographs via CASP 1.2.3.b image analysis. Analysis of 50–100 cells from each sample was performed to assess comet length, head length, tail length, tail moment, DNA content in the head, and tail of lymphocytes. […] The tail length (18.5 ± 1.4 µm) of EMS-treated DNA clearly indicates the production of nicks in nuclear content, representing a greater extent of genotoxicity. […]

For series [2], the system named is prostate cancer cells (PC3). The series is described as follows: MTT cytotoxicity assay. Type of series: cell-based. To be noted: Homo sapiens. The method, then: MTT assay was used to assess cytotoxicity against the human prostate PC3 cell line. […] PC3 cells were cultured in a humidified CO2 incubator at 37 °C in complete growth medium RPMI 1640 enriched with 2.2 g/L NaHCO3, 100 µg/mL streptomycin sulfate, 10% v/v heat-inactivated fetal bovine serum (HIFBS), […] amphotericin B, and 100 IU/mL penicillin G sodium. 20 µL of a compound in 1% DMSO in PBS and 180 µL of PC3 cancer cells were combined in a 96-well plate to reach a final concentration of 20 µg/mL for evaluating the cytotoxicity on PC3 cancer cells. The cells were loaded at an assay density of 1 × 10^4 cells/mL. The plate was incubated in humidified 5% CO2 at 37 °C for 24 h, 48 h, and 72 h. Cabazitaxel was utilized as a positive control, and 1 percent DMSO in PBS was employed as a negative control. Cabazitaxel was procured from Enzo life sciences, Fisher Scientific (Thermo Fisher Scientific, California, USA) CAS-183133-96-2 (ENZCHM2170010). A stock solution (4 mg/mL) of Cabazitaxel was prepared in DMSO and diluted in 1× PBS to make it 1% DMSO. Then serial dilutions of the standard compound were prepared in such a way that wells received 50, 25, 12.5, 6.25, and 3.12 µg/mL of Cabazitaxel with ≤1% DMSO. After that, 20 µL of pre-filter sterilized MTT solution was added to plates and incubated at 37 °C for 4 h in a CO2 incubator. Colored formazan crystals were detached by deliberately removing the supernatant and dissolved in 100 µL of DMSO with absorbance measured at 540 nm using Elx 800 microplate reader. Cytotoxicity was calculated using the following formula:% cytotoxicity = [100−(As/Ac × 100)] (1) where As and Ac show the absorbance of sample and negative control, respectively. Cytotoxicity was calculated with GraphPad Prism 5 software.
Background: Tetrazolium dyes change colour on reduction, which living cells bring about.

The next series is described as follows: Iron chelating assay. Type of series: biochemical. The note with it: for IC50 Iron Chelation: mean ± SD, triplicate. The method, then:
as §1

Series [3] in a line: OH● radical scavenging assay. Format: biochemical. The note with it: for inhibition of OH● radicals: 100 µg/mL; for IC50 OH● Inhibition: mean ± SD, triplicate. The procedure:
as §1

In another series the test system is PC3 cells. The series is described as follows: In vitro scratch (cell migration) assay. Type of series: cell-based, human. To be noted: PC3, 10 µg/mL, 24 h treatment; control 16.62 ± 4.4%. The method, then: Stress compound MVL was tested for cell migration of PC3 using an established in vitro scratch test for 24 h. MVL (10 µg/mL) appeared to induce a significant reduction in cell migration at 12 and 24 h treatment of PC3. This was estimated by comparing the scratch area at every observation time as a percentage of control at 0 h. The area of scratch at 24 h treatment with MVL was recorded as 61.10 ± 5.2% compared to control (16.62 ± 4.4%) (Figure 5).
Figure 5 In vitro scratch assay on MVL treated prostate cancer cells. PC3 cells were plated in 6-well plates and scratched at the full confluence. […] Reduction in the area of the scratch was Photographed using Olympus CKX41 microscope and measured using ImageJ software. Data is mean ± SEM percent area of scratch in triplicate at ***: p < 0.001 and ****: p < 0.0001.
In vitro wounds were induced by a modified protocol described, and the scratch assay was performed on cells to study the effect of stress compound on cell migration. In the growth medium of 24-well plates, […] were injected at a density of 5 × 10^4 cells/well. After achieving about 100% proliferation, the cells were shifted to the basal media for 24 h. […] Images were recorded instantly after being wounded and then again portrayed at 0, 12, and 24 h time points. Using Image J software, cell migration rates were quantified by measuring the wound area change (pixels).

In the next series the test system is BAX. The series is described as follows: Western blot expression analysis in PC3 cells. Type of series: cell-based, human. The note with it: PC3, 0, 5 and 10 µg/mL, 48 h. The method, then:
(§2) To unveil the possible mechanistic reason behind the anti-proliferation of cancer cell colonies in MTT assays, expression analysis of apoptotic proteins P53, BCL-2 and BAX were assessed via western blot technique (Figure 6). GAPDH served as a loading control. Prostate cancer cells (PC3) were treated with compound MVL at three concentrations (0, 5, and 10 µg/mL) for 48 h. Protein (40–60 µg) from protein lysate was segregated and probed with specified monoclonal antibodies.
(§3) Figure 6 Western blot analysis of proteins associated with MVL induced apoptosis. Prostate cancer cells, PC3 were treated with MVL at a concentration of 0, 5, and 10 µg/mL for 48 h. […] GAPDH was used as a loading control. Fold change in P-53, BAX, and BCL-2 expression after treating for 48 h with different concentrations of MVL. Means with different superscripts (^a–c) indicate significant (p < 0.001) difference in fold change between groups.
(§4) PC3 cells were cultured in a T75 flask (1 × 10^6/flask). After 48 h, cells were treated with […]. Following treatment, media was aspirated and cells were washed with cold PBS whose pH was maintained at 7.4 trypsinized and pelleted in 15 mL falcon tubes, and cold lysis buffer was added to the pellet. Protein extraction and western blot analysis were done by following the protocol described previously.

In the next series the test system is BCL-2. The series is described as follows: Western blot expression analysis in PC3 cells. Format: cell-based, human. To be noted: PC3, 0, 5 and 10 µg/mL, 48 h. The procedure:
as §2, §3, §4

Another series deals with P53. The series is described as follows: Western blot expression analysis in PC3 cells. Format: cell-based, human. To be noted: PC3, 0, 5 and 10 µg/mL, 48 h. The method, then:
as §2, §3, §4
Background: In western blotting, separated proteins are transferred to a membrane and probed.

In the case of `O=C1O[C@H]([C@@H](O)CO)C(O)=C1O` [Ascorbic acid, reference compound], in series [1], the “inhibition of free radical (DPPH)” value turned out to be 84.23 ± 2.9% and the “IC50 DPPH Scavenging” value was found to be 6.52 ± 4.92 µg/mL (≈ 37 µM). In addition, in the series “NO scavenging assay”, the “inhibition of NO free radicals” value is recorded as 81.69 ± 2.69% and the “IC50 NO Inhibition” value was determined as 8.44 ± 4.17 µg/mL (≈ 47.9 µM).
As to `CCOS(C)(=O)=O` [EMS, Ethyl methane sulfonate, reference compound], in the series on blood lymphocytes (20 µg/mL), the “% DNA in Head” value was 56.6 ± 3.5%, the “% DNA in Tail” value was 43.4 ± 1.8 ^¥ %, the “Comet Length” value is 42.6 ± 3.6 µm and the “Head Length” value amounted to 24.1 ± 2.7 µm. Further, in the series with blood lymphocytes (20 µg/mL), the “Tail Length” value turned out to be 18.5 ± 1.4 µm and the “Tail Moment” value is 1.37 ± 0.11 ^¥ µm.
One may read the IC50 as the concentration at which inhibition is half-maximal. Consider `CO[C@H]1C(=O)[C@]2(C)[C@@H](OC)C[C@H]3OC[C@@]3(OC(C)=O)[C@H]2[C@H](OC(=O)c2ccccc2)[C@]2(O)C[C@H](OC(=O)[C@H](O)[C@@H](NC(=O)OC(C)(C)C)c3ccccc3)C(C)=C1C2(C)C` [Cabazitaxel, reference compound], for which the IC50 in series [2] (24 h, read-out: IC50 24 h) was determined as 21.2 ± 5.1 µg/mL (≈ 25.3 µM); in [2] (48 h, read-out: IC50 48 h) it was 15.1 ± 5.7 µg/mL (≈ 18.1 µM); in series [2] (72 h, read-out: IC50 72 h), 9.25 ± 3.4 µg/mL (≈ 11.1 µM).
As for `O=C(O)CN(CCN(CC(=O)O)CC(=O)O)CC(=O)O` [EDTA, reference compound], in “Iron chelating assay”, the iron chelation capacity was determined as 81.52 ± 4.67% and the “IC50 Iron Chelation” value was 10.20 ± 6.54 µg/mL (≈ 34.9 µM).
Turning to `O=C(O)c1cc(O)c(O)c(O)c1` [Gallic acid, reference compound], in series [3], the “inhibition of OH● radicals” value is listed as 83.15 ± 3.67% and the “IC50 OH● Inhibition” value is on record as 6.26 ± 6.39 µg/mL (≈ 36.8 µM).
Turning to `CC1=CC(=O)OCC1` [MVL, anhydromevalonolactone], in [1], the “inhibition of free radical (DPPH)” value is listed as 78.18 ± 4.2% and the “IC50 DPPH Scavenging” value is listed as 19.65 ± 5.7 µg/mL (≈ 175 µM). Besides, in the series “NO scavenging assay”, the “inhibition of NO free radicals” value came out at 80.05 ± 3.88% and the “IC50 NO Inhibition” value is on record as 15.49 ± 4.8 µg/mL (≈ 138 µM). In series [3], the “inhibition of OH● radicals” value was determined as 72.69 ± 4.93% and the “IC50 OH● Inhibition” value stood at 19.65 ± 5.22 µg/mL (≈ 175 µM). Further, in “Iron chelating assay”, the iron chelation capacity is given as 70.96 ± 5.79% and the “IC50 Iron Chelation” value was 19.38 ± 7.11 µg/mL (≈ 173 µM). Also, in [2] (24 h, read-out: IC50 24 h), the 50% inhibitory concentration (IC50) came to 35.8 ± 4.2 µg/mL (≈ 319 µM). Besides, in [2] (48 h, read-out: IC50 48 h), the IC50 stood at 23.3 ± 3.8 µg/mL (≈ 208 µM). For the same compound, the IC50 in series [2] (72 h, read-out: IC50 72 h) turned out to be 16.2 ± 6.5 µg/mL (≈ 145 µM). In the series with PC3 cells, the “area of scratch as percentage of control at 0 h” value is given as 61.10 ± 5.2%. Moreover, the BAX protein expression result with BAX is listed as “upregulation”. For the same compound, the BCL-2 protein expression result in the series on BCL-2 is listed as “downregulation”. The P53 protein expression entry with P53 was “upregulation”. In addition, in the series with blood lymphocytes (10 µg/mL), the “% DNA in Head” value is on record as 86.1 ± 2.8%, the “% DNA in Tail” value was 13.9 ± 1.8 ^β %, the “Comet Length” value is listed as 42.6 ± 3.1 µm and the “Head Length” value is recorded as 36.7 ± 2.5 µm. Further, in the series on blood lymphocytes (10 µg/mL), the “Tail Length” value amounted to 5.9 ± 0.3 µm and the “Tail Moment” value is listed as 0.11 ± 0.03 ^β µm. Also, in the series on blood lymphocytes (20 µg/mL), the “% DNA in Head” value is given as 80.6 ± 1.8%; the “% DNA in Tail” value was 19.4 ± 2.6 ^β, ¥ %; the “Comet Length” value amounted to 41.4 ± 2.4 µm; the “Head Length” value came out at 31.7 ± 1.8 µm. Moreover, in the series on blood lymphocytes (20 µg/mL), the “Tail Length” value turned out to be 8.5 ± 1.3 µm and the “Tail Moment” value is reported as 0.24 ± 0.03 ^β, ¥ µm.
